Data: patent US20240327429A1, “[1,3]Thiazolo[4,5-d]-pyrimidon-7-ones as inhibitors of NOX4” (Boehringer Ingelheim International GmbH, priority 2023, published 2024)

Experiments:
human NOX5 (hNOX5) = target: T1, human NOX5 (hNOX5) (Homo sapiens, UniProt Q96PH1); assay: NOX5 inhibition assay (L-012), HEK293 cells stably overexpressing human NOX5; type: cell-based; conditions: HEK293-hNOX5, PMA stimulated
T1 construct: expressed in transfected cells; host or cells: HEK293
T1 sequence (Q96PH1 1-765): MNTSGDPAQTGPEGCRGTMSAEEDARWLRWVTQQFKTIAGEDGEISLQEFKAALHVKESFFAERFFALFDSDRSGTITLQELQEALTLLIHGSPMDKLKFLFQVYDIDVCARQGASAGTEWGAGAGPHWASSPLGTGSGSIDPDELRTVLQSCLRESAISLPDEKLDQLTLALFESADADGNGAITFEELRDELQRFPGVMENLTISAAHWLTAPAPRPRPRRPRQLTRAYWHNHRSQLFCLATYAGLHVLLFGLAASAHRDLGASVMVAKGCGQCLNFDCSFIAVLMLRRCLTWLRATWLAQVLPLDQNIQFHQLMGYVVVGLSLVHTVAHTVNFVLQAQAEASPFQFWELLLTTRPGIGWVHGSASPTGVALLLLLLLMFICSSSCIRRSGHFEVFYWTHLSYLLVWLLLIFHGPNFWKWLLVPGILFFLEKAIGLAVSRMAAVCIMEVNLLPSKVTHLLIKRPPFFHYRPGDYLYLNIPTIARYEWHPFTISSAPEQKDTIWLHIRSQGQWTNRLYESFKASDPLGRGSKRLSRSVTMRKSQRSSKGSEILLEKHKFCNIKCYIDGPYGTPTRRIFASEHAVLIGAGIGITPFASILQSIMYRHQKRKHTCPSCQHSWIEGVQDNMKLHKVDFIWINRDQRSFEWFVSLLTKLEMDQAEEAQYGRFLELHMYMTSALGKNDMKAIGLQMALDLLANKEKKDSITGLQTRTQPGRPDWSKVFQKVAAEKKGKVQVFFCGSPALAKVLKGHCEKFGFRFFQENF
Method: The synthetic gene hNOX5 (Accession: Q96PH1) is cloned into pcDNA3.1_Zeo. […] The final construct is verified by sequencing.
Evaluation of the NOX4 inhibitors on NOX5 activity is assessed in HEK293 cells stably overexpressing human NOX5 (hNOX5).
Cells are seeded in 384 well plates over-night. […] Cells are then stimulated with PMA at 0.1 μM to induce NOX5-dependent ROS production. […] Luminescence is measured with an PHERAstar multimode reader.

human NOX3 (hNOX3) = target: T2, human NOX3 (hNOX3) (Homo sapiens, UniProt Q9HBY0); assay: NOX3 inhibition assay (L-012), HEK293 cells stably overexpressing human NOX3; type: cell-based; conditions: HEK293-hNOX3, PMA stimulated
T2 construct: pLV-CMV-hNOX3-puro (NM_015718.3); host or cells: HEK293 (CLS GmbH), lentiviral transduction
T2 sequence (Q9HBY0 1-568): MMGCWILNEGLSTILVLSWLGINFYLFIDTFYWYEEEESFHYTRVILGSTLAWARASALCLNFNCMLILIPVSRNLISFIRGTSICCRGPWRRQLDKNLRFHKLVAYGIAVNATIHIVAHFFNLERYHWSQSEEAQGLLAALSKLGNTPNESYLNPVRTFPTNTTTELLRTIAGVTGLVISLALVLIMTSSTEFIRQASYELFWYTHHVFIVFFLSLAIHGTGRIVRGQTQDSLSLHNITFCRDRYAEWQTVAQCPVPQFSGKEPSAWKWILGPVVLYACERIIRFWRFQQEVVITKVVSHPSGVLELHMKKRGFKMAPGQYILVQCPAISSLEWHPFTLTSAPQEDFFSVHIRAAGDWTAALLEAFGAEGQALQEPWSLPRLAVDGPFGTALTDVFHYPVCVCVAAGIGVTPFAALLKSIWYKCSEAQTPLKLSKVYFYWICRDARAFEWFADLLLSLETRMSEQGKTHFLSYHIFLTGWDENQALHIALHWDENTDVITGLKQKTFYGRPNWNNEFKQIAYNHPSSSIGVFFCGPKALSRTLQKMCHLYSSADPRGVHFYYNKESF
T2 sequence (P13498 2-195 partner limits assumed): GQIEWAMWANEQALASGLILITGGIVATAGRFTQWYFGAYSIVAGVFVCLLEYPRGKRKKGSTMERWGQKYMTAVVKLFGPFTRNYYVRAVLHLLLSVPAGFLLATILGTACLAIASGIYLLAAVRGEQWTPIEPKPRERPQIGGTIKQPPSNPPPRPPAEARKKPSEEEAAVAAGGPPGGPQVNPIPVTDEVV
Source text: Plasmids are Purchased from Vectorbuilder. • for HEK-hNOX1 all necessary subunits are cloned accordingly: • pLV-CMV-hNOX1-puro (NM_007052.5) • pLV-CMV-hNOXO1-blas (NM_172168.3) • pLV-CMV-hp22phox-hygro (NM_000101.4) • pLV-CMV-hNOXA1-neo (NM_006647.2) • for HEK-hNOX3 • pLV-CMV-hNOX3-puro (NM_015718.3)
3rd generation lentiviral particles are produced in HEK293 suspension cells by transient transfection of three helper and expression plasmids. Crucial lentivirus supernatants are harvested, clarified by filtration and concentrated by precipitation. Lentivirus titers are determined in transducing units in (TU/mL) by transduction of HT1080 cells and colony forming assay. Parental HEK293 cells, purchased from CLS GmbH, are transduced with replication-incompetent 3rd generation lentiviral particles (MOI 2) and expanded for at least 2 weeks before cryopreservation of tested lots. During cultivation, medium is changed three times per week and cells are sub-cultured at least once per week. Selection antibiotics are added according to the plasmids (1 μg/ml puromycin, 1.5 μg/ml blasticidin, 200 μg/ml G418 and 100 μg/ml hygromycin).
Evaluation of the NOX4 inhibitors on NOX3 activity is assessed in HEK293 cells stably overexpressing human NOX3 (hNOX3).
Cells are seeded in 384 well plates for 2 days. […] Cells are then stimulated with PMA at 0.1 μM to induce NOX3-dependent ROS production. […] Luminescence is measured with an PHERAstar multimode reader.

IC50 (human NOX5 (hNOX5)) [µM]	IC50 (human NOX3 (hNOX3)) [µM]	SMILES
> 100	2.7	O=c1c2scnc2nc(SCc2c(F)cc(F)cc2F)n1-c1cc(F)c(O)c(F)c1 [Example 8]
13	16.3	O=c1c2scnc2nc(SCc2c(F)cc(F)cc2F)n1-c1ccc(O)c(F)c1 [Example 11]
–	7.6	O=c1c2scnc2nc(SCc2c(F)cc(F)cc2F)n1-c1ccc(O)c(F)c1F [Example 12]
10.2	25.5	O=c1c2scnc2nc(SCc2c(F)cc(F)cc2F)n1-c1ccc(O)cc1F [Example 14]
59	> 100	O=c1c2scnc2nc(SCc2c(F)cc(F)cc2F)n1-c1ccc(O)cc1 [Example 15]
36	59.1	O=c1c2scnc2nc(SCc2c(F)cc(F)cc2F)n1-c1ccc(O)c(Cl)c1 [Example 16]
17.5	61.4	O=c1c2scnc2nc(SCc2c(F)cc(F)cc2F)n1-c1ccc(O)cc1Cl [Example 17]
> 100	0.4	N#Cc1cc(-n2c(SCc3c(F)cc(F)cc3F)nc3ncsc3c2=O)ccc1O [Example 18]
> 100	> 100	O=c1c2scnc2nc(SCc2c(F)cc(F)cc2F)n1-c1ccc(O)cn1 [Example 19]
32.7	8.1	O=c1c2scnc2nc(SCc2c(F)cc(F)cc2F)n1-c1cc(F)c(O)cn1 [Example 20]
> 100	> 100	O=c1c2scnc2nc(SCc2c(F)cc(F)cc2F)n1-c1ncc(O)cn1 [Example 21, 6-(5-Hydroxypyrimidin-2-yl)-5-((2,4,6-trifluorobenzyl)thio)thiazolo[4,5-d]pyrimidin-7(6H)-one]
> 100	> 100	O=c1c2scnc2nc(SCc2ccc(Cl)cc2F)n1-c1ccc(O)nc1 [Example 22, 5-((4-Chloro-2-fluorobenzyl)thio)-6-(6-hydroxypyridin-3-yl)thiazolo[4,5-d]pyrimidin-7(6H)-one]
> 100	> 100	Cc1cc(F)cc(C)c1CSc1nc2ncsc2c(=O)n1-c1ccc(O)nc1 [Example 24]
> 100	> 100	O=c1c2scnc2nc(SCc2c(F)cc(F)cc2F)n1-c1ccc(O)nc1 [Example 28]
> 100	> 100	Cc1cc(F)ccc1CSc1nc2ncsc2c(=O)n1-c1ccc(O)nc1 [Example 29]
> 100	> 100	O=c1c2scnc2nc(SCc2c(F)cc(F)cc2F)n1-c1cnc(O)c(F)c1 [Example 31, 6-(5-Fluoro-6-hydroxypyridin-3-yl)-5-((2,4,6-trifluorobenzyl)thio)thiazolo[4,5-d]-pyrimidin-7(6H)-one]
> 100	> 100	O=c1c2scnc2nc(SCc2ccc(F)cc2F)n1-c1cnc(O)c(F)c1 [Example 38]

The remaining lines, values behind:

SMILES	IC50 (human NOX5 (hNOX5)) [µM]	IC50 (human NOX3 (hNOX3)) [µM]
O=c1c2scnc2nc(SCc2ccc(Cl)cc2F)n1-c1cc(F)c(O)c(F)c1 [Example 2, 5-((4-Chloro-2-fluorobenzyl)thio)-6-(3,5-difluoro-4-hydroxyphenyl)thiazolo[4,5-d]-pyrimidin-7(6H)-one]	> 100	4.1
Cc1cc(Cl)ccc1CSc1nc2ncsc2c(=O)n1-c1cc(F)c(O)c(F)c1 [Example 3]	> 100	> 100
Cc1cc(F)cc(C)c1CSc1nc2ncsc2c(=O)n1-c1cc(F)c(O)c(F)c1 [Example 4]	> 100	4.1
O=c1c2scnc2nc(SCc2ccc(Cl)cc2)n1-c1cc(F)c(O)c(F)c1 [Example 5]	> 100	> 100
O=c1c2scnc2nc(SCc2ccc(C(F)(F)F)cc2F)n1-c1cc(F)c(O)c(F)c1 [Example 6]	> 100	> 100
O=c1c2scnc2nc(SCc2ccc(C(F)(F)F)cc2)n1-c1cc(F)c(O)c(F)c1 [Example 7]	> 100	> 100
Cc1cc(F)ccc1CSc1nc2ncsc2c(=O)n1-c1cc(F)c(O)c(F)c1 [Example 9]	> 100	3.7
O=c1c2scnc2nc(SCc2c(F)cc(F)cc2F)n1-c1cc(F)c(O)cc1F [Example 10, 6-(2,5-Difluoro-4-hydroxyphenyl)-5-((2,4,6-trifluorobenzyl)thio)thiazolo[4,5-d]pyrimidin-7(6H)-one]	11.5	4
O=c1c2scnc2nc(SCc2c(F)cc(F)cc2F)n1-c1c(F)cc(O)cc1F [Example 13]	5.1	16
Cc1cc(Cl)ccc1CSc1nc2ncsc2c(=O)n1-c1ccc(O)nc1 [Example 23]	> 100	> 100
O=c1c2scnc2nc(SCc2ccc(Cl)cc2)n1-c1ccc(O)nc1 [Example 25]	> 100	> 100
O=c1c2scnc2nc(SCc2ccc(C(F)(F)F)cc2F)n1-c1ccc(O)nc1 [Example 26]	57.4	62.1
O=c1c2scnc2nc(SCc2ccc(C(F)(F)F)cc2)n1-c1ccc(O)nc1 [Example 27]	93.3	86.8
O=c1c2scnc2nc(SCc2ccc(F)cc2)n1-c1ccc(O)nc1 [Example 30]	94.8	98.1
O=c1c2scnc2nc(SCc2ccc(C(F)(F)F)cc2)n1-c1cnc(O)c(F)c1 [Example 32, 6-(5-Fluoro-6-hydroxypyridin-3-yl)-5-((4-(trifluoromethyl)benzyl)thio)thiazolo[4,5-d]pyrimidin-7(6H)-one]	55.7	38
O=c1c2scnc2nc(SCc2ccc(Cl)cc2)n1-c1cnc(O)c(F)c1 [Example 33]	> 100	> 100
O=c1c2scnc2nc(SCc2ccc(Br)cc2F)n1-c1cnc(O)c(F)c1 [Example 34]	46.5	63.6
O=c1c2scnc2nc(SCc2ccc(Cl)cc2F)n1-c1cnc(O)c(F)c1 [Example 35]	65.5	39.9
Cc1cc(F)ccc1CSc1nc2ncsc2c(=O)n1-c1cnc(O)c(F)c1 [Example 36]	> 100	87.9
Cc1cc(Cl)ccc1CSc1nc2ncsc2c(=O)n1-c1cnc(O)c(F)c1 [Example 37]	64.5	70.4
O=c1c2scnc2nc(SCc2ccc(Cl)cc2Cl)n1-c1cnc(O)c(F)c1 [Example 39]	47.9	56.2
